In patent US10543212B2, “Substituted amines for treating cardiac diseases” (Cardurion Pharmaceuticals, LLC, priority 2017, dated 2020):

Biological target: T1, Full-length, GST-tagged, human CaMKIIδ (Homo sapiens, UniProt Q13557)
T1 construct: Full-Length, Glutathione-S-Transferase(GST)-Tagged, Human CaMKIIδ was purchased from Carna Biosciences; purchased Carna Biosciences 02-111
Assay: CaMKIIδ binding assay (TR-FRET with BODIPY-labeled probe ligand)
Procedure, shortened: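 TR-FRET probe-displacement binding: 0.5 nM GST-CaMKIIδ with 10 μg/mL calmodulin, 1 mM CaCl2, 0.21 nM Tb-anti-GST Ab and 300 nM BODIPY probe in HEPES pH 7.6 buffer. Eight-point 4-fold dilutions, 1 hr at room temperature. IC50 from logistic fit; 100% inhibition defined by 3 μM parent compound.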

[1] = CaMKIIδ binding assay, activity class per Table 2
[2] = Table 2, activity class for CaMKIIδ
[3] = Table 2, CaMKIIδ binding assay, activity given as class A/B/C
[4] = CaMKIIδ binding assay, results of Table 2

T1 sequence (Q13557 1-478 isoform Q13557-12): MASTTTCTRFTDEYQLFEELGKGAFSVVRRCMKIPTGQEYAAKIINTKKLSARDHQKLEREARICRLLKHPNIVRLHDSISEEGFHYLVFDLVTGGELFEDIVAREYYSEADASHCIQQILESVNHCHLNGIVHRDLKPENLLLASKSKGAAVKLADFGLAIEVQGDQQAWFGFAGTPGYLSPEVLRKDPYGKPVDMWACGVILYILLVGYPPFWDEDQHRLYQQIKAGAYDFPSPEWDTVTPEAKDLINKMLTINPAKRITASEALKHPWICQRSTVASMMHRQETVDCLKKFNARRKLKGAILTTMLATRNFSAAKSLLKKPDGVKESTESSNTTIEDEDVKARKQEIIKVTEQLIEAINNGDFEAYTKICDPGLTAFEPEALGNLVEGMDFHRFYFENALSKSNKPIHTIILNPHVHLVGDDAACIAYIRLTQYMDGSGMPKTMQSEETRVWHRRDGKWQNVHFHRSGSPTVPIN

## CC(C)c1nn(C2CC3(C2)CN(CC(C)(C)O)C3)cc1Nc1ncc(-c2ccc(Cl)c(O[C@@H](C)Cn3cnnn3)c2)cn1 [Example 947, (S)-1-(6-(4-((5-(3-((1-(1H-tetrazol-1-yl)propan-2-yl)oxy)-4-chlorophenyl)pyrimidin-2-yl)amino)-3-isopropyl-1H-pyrazol-1-yl)-2-azaspiro[3.3]heptan-2-yl)-2-methylpropan-2-ol]
[1]
  IC50: < 10 nM

## C[C@@H](Cn1cnnn1)Oc1cc(-c2cnc(Nc3cn(CCN4CCOCC4)nc3C(F)(F)F)nc2)ccc1Cl [Example 633, (S)-5-(3-((1-(1H-tetrazol-1-yl)propan-2-yl)oxy)-4-chlorophenyl)-N-(1-(2-morpholinoethyl)-3-(trifluoromethyl)-1H-pyrazol-4-yl)pyrimidin-2-amine]
[2]
  IC50: 10 to 100 nM

## C[C@@H](Cn1cnnn1)Oc1cc(-c2cnc(Nc3cn(C4CCCCNC4=O)nc3C(F)(F)F)nc2)ccc1Cl (stereo partly drawn) [Example 629, 3-(4-((5-(3-(((S)-1-(1H-tetrazol-1-yl)propan-2-yl)oxy)-4-chlorophenyl)pyrimidin-2-yl)amino)-3-(trifluoromethyl)-1H-pyrazol-1-yl)azepan-2-one]
[2]
  IC50: < 10 nM

## COc1ccc(N2C[C@@H](C)N[C@@H](C)C2)cc1Nc1ncc(-c2ccc(Cl)c(O[C@@H](C)Cn3cnnn3)c2)cn1 [Example 612, 5-(3-(((S)-1-(1H-tetrazol-1-yl)propan-2-yl)oxy)-4-chlorophenyl)-N-(5-(cis-3,5-dimethylpiperazin-1-yl)-2-methoxyphenyl)pyrimidin-2-amine]
[2]
  IC50: < 10 nM

## CCC1(N2CC3(CC(n4cc(Nc5ncc(-c6ccc(Cl)c(O[C@@H](C)Cn7cnnn7)c6)cn5)c(C(C)C)n4)C3)C2)CCOCC1 [Example 953, (S)-5-(3-((1-(1H-tetrazol-1-yl)propan-2-yl)oxy)-4-chlorophenyl)-N-(1-(2-(4-ethyltetrahydro-2H-pyran-4-yl)-2-azaspiro[3.3]heptan-6-yl)-3-isopropyl-1H-pyrazol-4-yl)pyrimidin-2-amine]
[1]
  IC50: < 10 nM

## COc1ccc(N2CCN(CC(N)=O)CC2)cc1Nc1ncc(-c2ccc(Cl)c(O[C@@H](C)Cn3cnnn3)c2)cn1 [Example 686, (S)-2-(4-(3-((5-(3-((1-(1H-tetrazol-1-yl)propan-2-yl)oxy)-4-chlorophenyl)pyrimidin-2-yl)amino)-4-methoxyphenyl)piperazin-1-yl)acetamide]
[2]
  IC50: < 10 nM

## C[C@@H](Cn1cnnn1)Oc1cc(-c2cnc(Nc3cn(C4CCN(C5CCOCC5)CC4)nc3OCC(F)(F)F)nc2)ccc1C#N [Example 790, (S)-2-((1-(1H-tetrazol-1-yl)propan-2-yl)oxy)-4-(2-((1-(1-(tetrahydro-2H-pyran-4-yl)piperidin-4-yl)-3-(2,2,2-trifluoroethoxy)-1H-pyrazol-4-yl)amino)pyrimidin-5-yl)benzonitrile]
[3]
  IC50: < 10 nM

## CCn1cc(Nc2ncc(-c3ccc(C#N)c(O[C@@H](C)Cn4cnnn4)c3)cn2)c(OCC(F)(F)F)n1 [Example 764, (S)-2-((1-(1H-tetrazol-1-yl)propan-2-yl)oxy)-4-(2-((1-ethyl-3-(2,2,2-trifluoroethoxy)-1H-pyrazol-4-yl)amino)pyrimidin-5-yl)benzonitrile]
[3]
  IC50: < 10 nM

## C[C@@H](Cn1cnnn1)Oc1cc(-c2cnc(Nc3ccc4c(c3)CCN4C(=O)OC(C)(C)C)nc2)ccc1Cl [Example 450, tert-butyl (S)-5-((5-(3-((1-(1H-tetrazol-1-yl)propan-2-yl)oxy)-4-chlorophenyl)pyrimidin-2-yl)amino)indoline-1-carboxylate]
[4]
  IC50: ≥ 100 nM

## COc1cc(C2CCN(C3COC3)CC2)c(C)cc1Nc1ncc(-c2ccc(C#N)c(O[C@@H](C)Cn3cnnn3)c2)cn1 [Example 528, (S)-2-((1-(1H-tetrazol-1-yl)propan-2-yl)oxy)-4-(2-((2-methoxy-5-methyl-4-(1-(oxetan-3-yl)piperidin-4-yl)phenyl)amino)pyrimidin-5-yl)benzonitrile]
[4]
  IC50: < 10 nM

## COc1cc2c(cc1Nc1ncc(-c3ccc(Cl)c(O[C@@H](C)Cn4cnnn4)c3)cn1)N(C(C)=O)CC2 [Example 466, (S)-1-(6-((5-(3-((1-(1H-tetrazol-1-yl)propan-2-yl)oxy)-4-chlorophenyl)pyrimidin-2-yl)amino)-5-methoxyindolin-1-yl)ethan-1-one]
[4]
  IC50: 10 to 100 nM

## COc1cc2c(cc1Nc1ncc(-c3ccc(Cl)c(O[C@@H](C)Cn4cnnn4)c3)cn1)CNCC2 [Example 461, (S)-N-(5-(3-((1-(1H-tetrazol-1-yl)propan-2-yl)oxy)-4-chlorophenyl)pyrimidin-2-yl)-6-methoxy-1,2,3,4-tetrahydroisoquinolin-7-amine]
[4]
  IC50: < 10 nM

## C[C@@H](Cn1cnnn1)Oc1cc(-c2cnc(Nc3cn(C4CC5(C4)CN(C4CCCOCC4)C5)nc3OCC(F)(F)F)nc2)ccc1Cl (stereo partly drawn) [Example 981, 5-(3-(((S)-1-(1H-tetrazol-1-yl)propan-2-yl)oxy)-4-chlorophenyl)-N-(1-(2-(oxepan-4-yl)-2-azaspiro[3.3]heptan-6-yl)-3-(2,2,2-trifluoroethoxy)-1H-pyrazol-4-yl)pyrimidin-2-amine]
[1]
  IC50: < 10 nM

## COc1ccc(N2CCN(C)CC2)cc1Nc1ncc(-c2ccc(Cl)c(O[C@@H](C)Cn3cnnn3)c2)cn1 [Example 584, (S)-5-(3-((1-(1H-tetrazol-1-yl)propan-2-yl)oxy)-4-chlorophenyl)-N-(2-methoxy-5-(4-methylpiperazin-1-yl)phenyl)pyrimidin-2-amine]
[2]
  IC50: < 10 nM

## C[C@@H](Cn1cnnn1)Oc1cc(-c2cnc(Nc3cn([C@@H]4CN(C5CCC5)CC[C@H]4O)nc3C(F)(F)F)nc2)ccc1Cl (mixture of isomers) [Example 904, trans-3-(4-((5-(3-(((S)-1-(1H-tetrazol-1-yl)propan-2-yl)oxy)-4-chlorophenyl)pyrimidin-2-yl)amino)-3-(trifluoromethyl)-1H-pyrazol-1-yl)-1-cyclobutylpiperidin-4-ol]
[1]
  IC50: < 10 nM

## C[C@@H](Cn1cnnn1)Oc1cc(-c2cnc(Nc3cn(C4CCCN(C5COC5)C4)nc3C(F)(F)F)nc2)ccc1Cl (stereo partly drawn) [Example 601, 5-(3-(((S)-1-(1H-tetrazol-1-yl)propan-2-yl)oxy)-4-chlorophenyl)-N-(1-(1-(oxetan-3-yl)piperidin-3-yl)-3-(trifluoromethyl)-1H-pyrazol-4-yl)pyrimidin-2-amine]
[2]
  IC50: 10 to 100 nM

## C[C@@H](Cn1cnnn1)Oc1cc(-c2cnc(Nc3cn(CCNS(C)(=O)=O)nc3C(F)(F)F)nc2)ccc1Cl [Example 884, (S)-N-(2-(4-((5-(3-((1-(1H-tetrazol-1-yl)propan-2-yl)oxy)-4-chlorophenyl)pyrimidin-2-yl)amino)-3-(trifluoromethyl)-1H-pyrazol-1-yl)ethyl)methanesulfonamide]
[1]
  IC50: 10 to 100 nM

## C[C@@H](Cn1cnnn1)Oc1cc(-c2cnc(Nc3ccn(Cc4ccccc4)n3)nc2)ccc1Cl [Example 714, (S)-5-(3-((1-(1H-tetrazol-1-yl)propan-2-yl)oxy)-4-chlorophenyl)-N-(1-benzyl-1H-pyrazol-3-yl)pyrimidin-2-amine]
[2]
  IC50: 10 to 100 nM

## C[C@@H](Cn1cnnn1)Oc1cc(-c2cnc(Nc3cn(C4CC5(C4)CN(CC(C)(C)O)C5)nc3C(F)(F)F)nc2)ccc1Cl [Example 859, (S)-1-(6-(4-((5-(3-((1-(1H-tetrazol-1-yl)propan-2-yl)oxy)-4-chlorophenyl)pyrimidin-2-yl)amino)-3-(trifluoromethyl)-1H-pyrazol-1-yl)-2-azaspiro[3.3]heptan-2-yl)-2-methylpropan-2-ol]
[3]
  IC50: < 10 nM

## C[C@@H](Cn1cnnn1)Oc1cc(-c2cnc(Nc3cn(CC(C)(C)N)nc3C(F)(F)F)nc2)ccc1Cl [Example 861, (S)-5-(3-((1-(1H-tetrazol-1-yl)propan-2-yl)oxy)-4-chlorophenyl)-N-(1-(2-amino-2-methylpropyl)-3-(trifluoromethyl)-1H-pyrazol-4-yl)pyrimidin-2-amine]
[3]
  IC50: < 10 nM

## C[C@@H](Cn1cnnn1)Oc1cc(-c2cnc(Nc3cn([C@H]4CC[C@@H](N5CCC5)CC4)nc3C(F)(F)F)nc2)ccc1Cl [Example 778, 5-(3-(((S)-1-(1H-tetrazol-1-yl)propan-2-yl)oxy)-4-chlorophenyl)-N-(1-(cis-4-(azetidin-1-yl)cyclohexyl)-3-(trifluoromethyl)-1H-pyrazol-4-yl)pyrimidin-2-amine]
[3]
  IC50: < 10 nM

## C[C@@H](Cn1cnnn1)Oc1cc(-c2cnc(Nc3cn([C@H]4C[C@H](NC5CCOCC5)C4)nc3OCC(F)(F)F)nc2)ccc1Cl [Example 942, 5-(3-(((S)-1-(1H-tetrazol-1-yl)propan-2-yl)oxy)-4-chlorophenyl)-N-(1-(trans-3-((tetrahydro-2H-pyran-4-yl)amino)cyclobutyl)-3-(2,2,2-trifluoroethoxy)-1H-pyrazol-4-yl)pyrimidin-2-amine]
[1]
  IC50: < 10 nM

## C[C@@H](Cn1cnnn1)Oc1cc(-c2cnc(Nc3cn(C4CCN(C(=O)OC(C)(C)C)CC4)nc3C(F)F)nc2)ccc1Cl [Example 766, tert-butyl (S)-4-(4-((5-(3-((1-(1H-tetrazol-1-yl)propan-2-yl)oxy)-4-chlorophenyl)pyrimidin-2-yl)amino)-3-(difluoromethyl)-1H-pyrazol-1-yl)piperidine-1-carboxylate]
[3]
  IC50: 10 to 100 nM
